From patent US20240199555A1, “APPLICATIONS OF BIASED LIGANDS OF THE SEROTONIN 5-HT7 RECEPTOR FOR THE TREATMENT OF PAIN, MULTIPLE SCLEROSIS AND THE CONTROL OF THERMOREGULATION” (Centre National de la Recherche Scientifique, priority 2021, published 2024) come the findings set out here.

For one assay, the target named is h5-HT7R (Homo sapiens (Human), UniProt P34969). In words: cAMP accumulation (LANCE cAMP detection kit) in HEK-293 cells stably expressing h5-HT7R. Format: cell-based. On the procedure: (B) HEK-293 cells stably expressing h5-HT7R were stimulated with 10 nM of 5-CT and increasing concentrations of products for one hour. After cell lysis, cAMP production was quantified by a LANCE cAMP detection kit (Perkin Elmer). […] Data points represent the means±SEM from three independent experiments performed in triplicate. The EC50 and IC50 for each drug was determined using GraphPad Prism software.
Sequence of h5-HT7R (P34969 1-432): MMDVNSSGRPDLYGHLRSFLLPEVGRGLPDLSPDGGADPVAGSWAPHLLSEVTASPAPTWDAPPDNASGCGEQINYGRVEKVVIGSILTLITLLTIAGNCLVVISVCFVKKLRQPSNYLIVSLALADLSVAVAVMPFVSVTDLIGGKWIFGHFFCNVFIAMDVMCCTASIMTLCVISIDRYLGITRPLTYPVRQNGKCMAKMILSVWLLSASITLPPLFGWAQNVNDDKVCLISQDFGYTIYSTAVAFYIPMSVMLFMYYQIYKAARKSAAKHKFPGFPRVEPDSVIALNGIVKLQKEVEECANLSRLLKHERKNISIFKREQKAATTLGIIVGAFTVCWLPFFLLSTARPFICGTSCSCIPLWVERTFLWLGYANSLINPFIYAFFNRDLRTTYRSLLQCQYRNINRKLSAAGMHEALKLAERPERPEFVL
cAMP accumulation was measured with a LANCE™ cAMP detection kit (Perkin-Elmer Life Sciences, Boston, MA, USA). 12 h before experiment cells were starved. Forty-eight h after transfection, cells were harvested in Hank's balanced salt solution (HBSS) containing 5 mM HEPES, 1 mM isobutylmethylxanthine (IBMX) and 0.1% BSA, PH 7.4. After centrifugation (1000×g, 5 min), cells were resuspended in the same buffer (2×10^6 per ml). The ALEXA™ fluor 647 anti-cAMP antibody solution (1 μl) was added to the cell suspension (100 μl) and 5 μl aliquots of the mixture were dispensed in white 384-well microtiter plates (Optiplate, Perkin Elmer). The cells were then stimulated with different drugs. After 1 h incubation at room temperature in the dark, lysis buffer (0.35% Triton X-100, 10 mM CaCl2, 50 mM HEPES) containing LANCE EU-W8044 labeled streptavidin and biotinylated-cAMP was added to the cells (10 μL per well). After 2 h incubation at room temperature in the dark, the plates were read on a VictorV™ microplate reader (Perkin-Elmer Life Sciences). Concentration/response curves were analyzed using Prism 4 software.
HEK-293 fibroblast stably expressing 5-HT7 receptor were used to compare the effect of different 5-HT7R ligands on the classical Gαs-mediated activation of AC pathway. It was decided to evaluate the lead compounds from two series of ligands, Serodolin and MOA-51 (FIG. 1A).
For orientation: Cyclic AMP is a second messenger, typically raised through Gs and lowered through Gi signalling.

The target in a further assay is 5-HT7R / β-arrestin2 (Homo sapiens (Human), UniProt P34969). Kind of assay: β-arrestin 2 BRET in HEK-293 cells transfected with 5-HT7R. The format is cell-based. To be noted: wild type 5-HT7R, intramolecular biosensor. Here is the method: FIG. 8: Serodolin-induced ERK phosphorylation is dependent on β-arrestin 2 recruitment. (A) HEK-293 or KO β-arrestin HEK-293 cells were transiently transfected with HA-5-HT7R and stimulated with 5-CT (10 μM), Serodolin (10 μM) or Vehicle (0.1% DMSO diluted in PBS solution) used as a control for 7 min. Representative blots of three independent experiments are illustrated. (B) Quantification of p-ERK and p-c-SRC were performed using Alphascreen technology. Data are means±SEM of values obtained in three independent experiments. (C) HEK-293 cells were transiently transfected with HA-h5-HT7R with β-arrestin2 BRET biosensor (Rluc-Arrestin-YPET), then incubated with increasing doses of 5-CT, or Serodolin (10^-11 to 10^-5 M). Ligand mediated BRET changes are expressed as induced BRET changes which were generated by subtracting at each point the signal of the cells incubated with PBS (without ligand). Data were fitted using non-linear regression using GraphPad Prism software. […]
Sequence of 5-HT7R / β-arrestin2 (P34969 1-432): as above
The inventors then investigated whether the Serodolin-induced β-arrestin recruitement using BRET experiments. […] After transfection of 5-HT7R-RLuc and arrestin2-YFP used as a BRET pair, the inventors evaluated the ability of 5-HT7R ligands to recruit β-arrestin. […]
For orientation: BRET reads energy transfer from a luciferase to a nearby fluorophore.

In the next assay the test system is mouse. Kind of assay: Effect on body temperature. Format: in vivo. To be noted: intravenous. The source says:
FIG. 13: Evaluation of the effect of Serodolin on body temperature.
FIG. 17: Evaluation of the effect of MOA51 on body temperature. Results expressed in ° C.
The time course of the effect of Serodolin on the body temperature has been evaluated in the mouse following intravenous administration.

For the next assay, the system named is C57BL/6 mice. In words: Spared Nerve Injury (SNI) neuropathic pain model, Von Frey. To be noted: s.c.

Molecules are shown by their SMILES. Where two headings read alike, the source gives them in different places.

Method for C57BL/6 mice: Pregabalin, vehicle or compounds solutions are subcutaneously administrated for 8 consecutive days. • (A) Mechanical response threshold after the first administration (D+10). […] Positive control animals were treated with Pregabalin (5 mg/kg, sc). Statistical differences are indicated compared to vehicle group (Two-way RM ANOVA followed by Bonferroni post-hoc test: ***p<0.001, ** p<0.01, * p<0.05). […] Positive control animals were treated with Pregabalin (5 mg/kg, sc). Statistical differences are indicated compared to vehicle group (Two-way RM ANOVA followed by Bonferroni post-hoc test: ***p<0.001, ** p<0.01, * p<0.05). […] (Two-way RM ANOVA followed by Bonferroni post-hoc test: ***p<0.001, ** p<0.01, * p<0.05)
MOA51 and Serodolin (AIC01) compounds were diluted in NDT solution (NaCl 0.9%—DMSO 20%—Tween80 5%). […] AIC01 was resuspended at 0.5 mg/mL and administrated at a ratio of 100 μl per 10 g (dose of 5 mg/kg).
Experiment starts with 8 weeks old male C57B16J mice (from Charles River). Study was performed on 40 mice (2 mice were excluded during the study due to health guidelines) divided in 4 randomized groups. • Group A: s.c. injection at 5 mg/kg of pregabalin. • Group B: s.c. injection at 0.5 mg/kg of MOA51. • Group C: s.c. injection at 5 mg/kg of Serodolin (AIC01). • Group D: s.c. injection of NDT solution (referred as Vehicle hereafter).
Compounds solutions, pregabalin and vehicle were subcutaneously administrated (100 μl/10 g) for 9 consecutive days, starting 10 days after surgery. Ligature and transection of the common peroneal and tibial distal branches of the sciatic nerve was made leaving the sural branch intact. 7 days post-surgery, a decrease of threshold response to Von Frey filaments of ipsilateral hind-paw was observed corresponding to neuropathic pain apparition (mechanical allodynia). Mechanical threshold response of mice were measured with calibrated Von Frey filaments using the up/down method. Experimenter was blind to mice treatment. Measures are performed as follow: one baseline measure before surgery, one measure at D+10, D+12, D+14, D+16 and D+18 before drug's administration, and 1 h, 2 h post-drug administration. A supplementary measure 4 h post-drug administration was performed at D+10 and D+18.
Two-way RM ANOVA (followed by Bonferroni post-hoc test) was used to analysed time course response at D+10 and D+18. Area under the curve was determined with the 1 h and 2 h post-drug administration measures to investigated tolerance of repeated administration of compounds

Broadly, the IC50 is the concentration at which inhibition is half-maximal. Consider `O=c1[nH]c2ccccc2n1CN1CCN(c2ccc(F)cc2)CC1` [Serodolin], for which the IC50 on h5-HT7R (10 nM of 5-CT, one hour, read-out: IC50, decrease of the 5-CT induced cAMP accumulation (antagonist)) is 5 ± 2 nM; on h5-HT7R (tested alone, read-out: IC50, inverse agonist effect on cAMP response) it was 14 nM. In addition, the “inhibition of cAMP production when tested alone (inverse agonist effect)” value on h5-HT7R (tested alone) is given as “around 75%”. For the same molecule, the “BRET signal of RLuc-arrestin2-YPET biosensor” value at 5-HT7R / β-arrestin2 is “concentration-dependent increase of BRET signal”. Moreover, the “decrease in body temperature, Emax” value in the assay with mouse (1 mg/kg, at 30 min) is −2.9 °C; with mouse (3 mg/kg, at 30 min), −3.6 °C; in the assay on mouse (10 mg/kg, at 60 min), −7.9 °C. For the same molecule, the “tolerance after repetitive administration (AUC)” value with C57BL/6 mice (9 consecutive days) is “didn't present any tolerance effect after repetitive administration”. For the same molecule, the “mechanical response threshold vs vehicle” value in the assay with C57BL/6 mice (first (D+10) and last (D+18) administration, 1 h and 2 h) is listed as “significant increase of the mechanical threshold response”.
